Data as given in patent US11464802B2, “3-substituted piperidine compounds for Cbl-b inhibition, and use thereof” (Nurix Therapeutics, Inc., priority 2019, dated 2022).

Tests used:
[1] = tested on: primary human total T-cells; experiment: Primary human total T-cell activation: IL-2 secretion, Biological Example 9; format: cell-based; details: 48 hours, fold change over baseline; for fold induction at 0.3 µM: inhibitor 0.3 μM; for fold induction at 0.3 µM / fold induction at 3 µM: Table 9-1; for fold induction at 1 µM: inhibitor 1 μM; for fold induction at 3 µM: inhibitor 3 μM
Cbl-b [2] = target: T1, Cbl-b (Homo sapiens (Human), UniProt Q13191); experiment: Cbl-b displacement assay (Cbl-b inhibition assay), Biological Example 8; format: binding; details: 0.125 nM Cbl-b final concentration (Low); Table 8-1; read-out: Cbl-b IC50 (Low)
T1 sequence (Q13191 36-427): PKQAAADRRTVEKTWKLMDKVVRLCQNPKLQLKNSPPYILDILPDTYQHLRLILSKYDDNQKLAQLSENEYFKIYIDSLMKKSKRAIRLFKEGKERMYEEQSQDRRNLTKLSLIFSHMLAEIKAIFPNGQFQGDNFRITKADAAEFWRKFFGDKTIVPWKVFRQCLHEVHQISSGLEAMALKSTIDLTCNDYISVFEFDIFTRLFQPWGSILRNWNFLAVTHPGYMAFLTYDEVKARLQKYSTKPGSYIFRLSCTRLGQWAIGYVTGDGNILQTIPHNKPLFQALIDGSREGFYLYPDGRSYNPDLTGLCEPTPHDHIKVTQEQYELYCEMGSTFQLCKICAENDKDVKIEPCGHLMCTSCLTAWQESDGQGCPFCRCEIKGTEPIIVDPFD
Protocol: (§1) Candidate compounds were evaluated for their ability to bind and inhibit Cbl-b, an E3 ubiquitin-protein ligase, as evidenced by their ability to displace a fluorophore-labeled probe bound to Cbl-b.
(§2) The ability of candidate compounds to displace a known inhibitor and thereby inhibit Cbl-b activity was measured by monitoring the interaction of Cbl-b with a fluorophore-labeled probe in the presence of the candidate compound. A truncated variant of Cbl-b (UniProt number Q13191) containing residues 36-427 and an Avitag at its N-terminus was co-expressed with BirA biotin ligase and purified using a standard protocol (see Dou et al., Nature Structural and Molecular Biology 8: 982-987, 2013; Avidity LLC).
(§3) Fluorescently-labeled inhibitor probe was synthesized and tagged with BODIPY FL. Cbl-b displacement assays were performed in a 384-well plate at room temperature in a 10 μl reaction volume by pre-incubating 0.5 nM Cbl-b or 0.125 nM Cbl-b (final concentration, indicated as “High” and “Low”, respectively) in an assay buffer containing 20 mM HEPES pH 7.5, 150 mM NaCl, 0.01% Triton X-100, 0.01% BSA and 0.5 mM TCEP in the presence of a candidate compound in 1% DMSO (final concentration) for 1 hour. After incubation in the presence of the candidate compound, the plate was incubated for an additional 1 hour in the presence of an approximate EC40 binding saturation consisting of 150 nM fluorescently-labeled inhibitor probe and 2 nM Streptavidin-Terbium (Cisbio) (final concentrations). Following the 1 hour incubation, the plates were read for TR-FRET signal at 520/620 nM using an Envision plate reader (Perkin Elmer).
(§4) The resulting data for the Cbl-b activity assays were analyzed using standard methods to determine the IC50 values for the tested compounds.

[3] = tested on: primary human total T-cells; experiment: Primary human total T-cell activation: IL-2 secretion, Biological Example 13; format: cell-based; details: 48 hours, fold change over baseline; for fold induction at 0.3 µM: inhibitor 0.3 μM; for fold induction at 0.3 µM / fold induction at 3 µM: Table 13-1; for fold induction at 1 µM: inhibitor 1 μM; for fold induction at 3 µM: inhibitor 3 μM
Cbl-b [4] = target: T1, Cbl-b; experiment: Cbl-b displacement assay (Cbl-b inhibition assay), Biological Example 12; format: binding; details: 0.125 nM Cbl-b final concentration (Low); Table 12-1; read-out: Cbl-b IC50 (Low)
Protocol: as §1, §2, §3, §4

[5] = tested on: primary human total T-cells; experiment: Primary human total T-cell activation: CD25 surface staining, Biological Example 13; format: cell-based; details: 48 hours, fold change over baseline; for fold induction at 0.3 µM: inhibitor 0.3 μM; for fold induction at 0.3 µM / fold induction at 3 µM: Table 13-1; for fold induction at 1 µM: inhibitor 1 μM; for fold induction at 3 µM: inhibitor 3 μM
[6] = tested on: primary human total T-cells; experiment: Primary human total T-cell activation: CD25 surface staining, Biological Example 9; format: cell-based; details: 48 hours, fold change over baseline; for fold induction at 0.3 µM: inhibitor 0.3 μM; for fold induction at 0.3 µM / fold induction at 3 µM: Table 9-1; for fold induction at 1 µM: inhibitor 1 μM; for fold induction at 3 µM: inhibitor 3 μM
[7] = anti-CD3/anti-CD28 co-stimulation
[8] = anti-CD3/anti-CD28 co-stimulation, Table 9-1, read-out: IL-2 secretion CD3/CD28 1 μM
[9] = anti-CD3 alone, Table 9-1, read-out: IL-2 secretion CD3 1 μM
[10] = anti-CD3/anti-CD28 co-stimulation, Table 13-1, read-out: IL-2 secretion CD3/CD28 1 μM
[11] = anti-CD3 alone, Table 13-1, read-out: IL-2 secretion CD3 1 μM
[12] = anti-CD3/anti-CD28 co-stimulation, Table 13-1, read-out: CD25 staining CD3/CD28 1 μM
[13] = anti-CD3 alone, Table 13-1, read-out: CD25 staining CD3 1 μM
[14] = anti-CD3/anti-CD28 co-stimulation, Table 9-1, read-out: CD25 staining CD3/CD28 1 μM
[15] = anti-CD3 alone, Table 9-1, read-out: CD25 staining CD3 1 μM

| SMILES | fold induction at 0.3 µM [1, 7] | fold induction at 1 µM [1, 8] | fold induction at 1 µM [1, 9] | fold induction at 3 µM ([1]; anti-CD3 alone) | IC50 (Cbl-b [2]) | fold induction at 0.3 µM [3, 7] | fold induction at 1 µM [3, 10] | fold induction at 1 µM [3, 11] | fold induction at 3 µM ([3]; anti-CD3 alone) | IC50 (Cbl-b [4]) | fold induction at 0.3 µM [5, 7] | fold induction at 1 µM [5, 12] | fold induction at 1 µM [5, 13] | fold induction at 3 µM ([5]; anti-CD3 alone) | fold induction at 0.3 µM [6, 7] | fold induction at 1 µM [6, 14] | fold induction at 1 µM [6, 15] | fold induction at 3 µM ([6]; anti-CD3 alone) |
| --- | --- | --- | --- | --- | --- | --- | --- | --- | --- | --- | --- | --- | --- | --- | --- | --- | --- | --- |
| C[C@@H](c1cc2c(c(C(F)(F)F)c1)CN(c1cccc(C3(Cc4nncn4C)COC3)c1)C2=O)N1CCC(F)CC1 [Compound 61] | > 15 | > 15 | 0.34 to 0.66 | 0.34 to 0.66 | 1 to 5 nM | > 15 | > 15 | 0.34 to 0.66 | 0.34 to 0.66 | 1 to 5 nM | > 1.39 | > 1.39 | > 1.14 | > 1.14 | > 1.39 | > 1.39 | > 1.14 | > 1.14 |
| Cn1cnnc1C(F)(F)[C@](C)(F)c1cccc(N2Cc3c(cc(CN4CCC(F)(F)C4)cc3C(F)(F)F)C2=O)c1 [Compound 58] | < 10 | < 10 | < 0.33 | – | > 5 nM | < 10 | < 10 | < 0.33 | – | > 5 nM | < 1.24 | 1.25 to 1.39 | < 1.04 | – | < 1.24 | 1.25 to 1.39 | < 1.04 | – |
| Cn1cnnc1CC1(c2cccc(N3Cc4c(cc(CN5CCC6(CC6)C5)cc4C(F)(F)F)C3=O)c2)COC1 [Compound 59] | > 15 | > 15 | < 0.33 | 0.34 to 0.66 | 1 to 5 nM | > 15 | > 15 | < 0.33 | 0.34 to 0.66 | 1 to 5 nM | 1.25 to 1.39 | > 1.39 | > 1.14 | > 1.14 | 1.25 to 1.39 | > 1.39 | > 1.14 | > 1.14 |
| C[C@H](c1cc2c(c(C(F)(F)F)c1)CN(c1cccc(C3(Cc4nncn4C)COC3)c1)C2=O)N1CC[C@H](F)C1 [Compound 56] | 10 to 15 | 10 to 15 | < 0.33 | – | > 5 nM | 11 to 15 | 11 to 15 | < 0.33 | – | > 5 nM | 1.25 to 1.39 | > 1.39 | > 1.14 | – | 1.25 to 1.39 | > 1.39 | > 1.14 | – |
| C[C@@H]1[C@@H](c2nncn2C)[C@H]1c1cccc(N2Cc3c(cccc3C(F)(F)F)C2=O)c1 [Compound 54] | < 10 | < 10 | < 0.33 | – | > 5 nM | < 10 | < 10 | < 0.33 | – | > 5 nM | 1.25 to 1.39 | 1.25 to 1.39 | > 1.14 | – | 1.25 to 1.39 | 1.25 to 1.39 | > 1.14 | – |
| Cn1cnnc1C(F)(F)[C@](C)(F)c1cccc(N2Cc3c(cc(CN4CC[C@H](F)C4)cc3C(F)(F)F)C2=O)c1 [Compound 57] | < 10 | 10 to 15 | < 0.33 | – | > 5 nM | < 10 | 11 to 15 | < 0.33 | – | > 5 nM | 1.25 to 1.39 | > 1.39 | > 1.14 | – | 1.25 to 1.39 | > 1.39 | > 1.14 | – |
| C[C@@H](c1cc2c(c(C(F)(F)F)c1)CN(c1cccc(C3([C@@H](F)c4nncn4C)COC3)c1)C2=O)N1CCC2(CC2)C1 [Compound 60] | > 15 | > 15 | 0.34 to 0.66 | 0.34 to 0.66 | 1 to 5 nM | > 15 | > 15 | 0.34 to 0.66 | 0.34 to 0.66 | 1 to 5 nM | > 1.39 | > 1.39 | > 1.14 | > 1.14 | > 1.39 | > 1.39 | > 1.14 | > 1.14 |
| C[C@@H](c1cc2c(c(C(F)(F)F)c1)CN(c1cccc(C3(Cc4nncn4C)COC3)c1)C2=O)N1CC[C@H](F)C1 [Compound 55] | > 15 | > 15 | 0.34 to 0.66 | 0.34 to 0.66 | 1 to 5 nM | > 15 | > 15 | 0.34 to 0.66 | 0.34 to 0.66 | 1 to 5 nM | > 1.39 | > 1.39 | > 1.14 | > 1.14 | > 1.39 | > 1.39 | > 1.14 | > 1.14 |
